# Source: patent US20250041459A1, “Polyethylene Glycol Modified Zwitterionic Fluorescent Probe and Application Thereof, and Preparation” (Beijing Sonophotonano Medical Technology Company Limited, priority 2022, published 2025)
# Key:
# [1] = Absorption and fluorescence spectra of probes (optical properties); assay type: physicochemical; details: for Fluorescence quantum yield: ICG in DMSO as standard
# [2] = test system: SKOV3 human ovarian cancer; details: 2 nmol intravenous, 4 h
# Description: (§1) This test example studied the imaging manifestations of PEG-Cy7-RP-RGD in different tumor models. A U87 human glioma mouse in-situ model, an SKOV3 human ovarian cancer in-situ model, a 4T1 mouse breast cancer lung metastasis model and an MB-49 human bladder cancer lung metastasis model were respectively set up.
# A […] human ovarian cancer mouse in-situ tumor model was set up in FIG. 10.
# [3] = test system: MB-49 human bladder cancer cells; test: Fluorescence imaging in mouse subcutaneous tumor model of MB-49 bladder cancer cells; assay type: in vivo, Balb/c nude mouse
# Protocol: A mouse subcutaneous tumor model of human bladder cancer cells was set up by injecting MB-49 human bladder cancer cells in Balb/c nude mouse legs. After the tumor grew to a proper size, four fluorescent probes were respectively intravenously injected (2 nmol of probe was injected for each mouse), and then fluorescence imaging was performed on mice at different time points after injection.
# U87 human glioma = details: 2 nmol intravenous, 4 h
# Description: as §1
# [4] = test system: MB-49 human bladder cancer lung metastasis; details: 2 nmol intravenous, 4 h
# Description: as §1
# (§2) A 4T1 mouse breast cancer lung metastasis model and an MB-49 mouse bladder cancer lung metastasis model were respectively set up in FIG. 11.
# [5] = test system: 4T1 mouse breast cancer lung metastasis; details: 2 nmol intravenous, 4 h
# Description: as §1, §2
# PSMA = target: T1, PSMA (Homo sapiens, UniProt Q04609); test: PSMA-targeted prostate cancer fluorescence imaging; details: in vivo
# T1 construct: highly expressed PSMA in prostate cancer; endogenous in cells
# T1 sequence (Q04609 whole entry, species assumed): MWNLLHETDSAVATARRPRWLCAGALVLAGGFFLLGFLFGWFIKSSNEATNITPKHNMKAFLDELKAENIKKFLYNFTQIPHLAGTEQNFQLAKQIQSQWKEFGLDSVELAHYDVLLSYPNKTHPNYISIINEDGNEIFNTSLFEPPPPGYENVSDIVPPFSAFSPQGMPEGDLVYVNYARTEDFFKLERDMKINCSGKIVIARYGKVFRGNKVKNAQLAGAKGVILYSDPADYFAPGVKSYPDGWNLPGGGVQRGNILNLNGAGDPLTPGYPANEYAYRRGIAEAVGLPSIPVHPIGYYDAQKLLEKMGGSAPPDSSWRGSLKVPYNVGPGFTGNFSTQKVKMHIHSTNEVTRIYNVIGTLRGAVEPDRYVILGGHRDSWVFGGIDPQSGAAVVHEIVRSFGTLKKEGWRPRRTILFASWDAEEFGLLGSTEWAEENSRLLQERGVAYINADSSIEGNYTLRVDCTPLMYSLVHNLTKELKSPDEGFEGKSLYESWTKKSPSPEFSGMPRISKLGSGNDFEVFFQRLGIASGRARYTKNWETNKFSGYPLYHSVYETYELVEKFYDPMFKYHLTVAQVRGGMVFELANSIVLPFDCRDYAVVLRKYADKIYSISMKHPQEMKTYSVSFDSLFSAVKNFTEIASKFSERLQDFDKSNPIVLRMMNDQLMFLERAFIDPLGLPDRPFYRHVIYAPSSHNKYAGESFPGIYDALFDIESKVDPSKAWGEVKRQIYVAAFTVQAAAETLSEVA
# Description: (§3) The inventors conducted the above test to the fluorescent probes prepared in examples 2-5.
# tumors = test: The above tests repeated on probes of examples 2-5 (targeted fluorescence imaging of tumors); details: in vivo
# Description: as §3
smiles,measurement,setting,value
COCCOCCOCCN1/C(=C/C=C2\CCCC(/C=C/C3=[N+](CCOCCOCCOC)c4ccc(S(=O)(=O)O)cc4C3(C)C)=C2Oc2ccc(CCC(=O)N[C@@H](CCCNC(=N)N)C(=O)NCCOCCOCCOCCOCCC(=O)NCCCCC3NC(=O)[C@@H](Cc4ccc(O)cc4)NC(=O)[C@H](CC(=O)O)NC(=O)CNC(=O)[C@H](CCCNC(=N)N)NC3=O)cc2)C(C)(C)c2cc(S(=O)(=O)[O-])ccc21 (stereo partly drawn) [PEG-Cy7-RP-RGD],Absorption peak,[1]; 100% Fetal bovine serum,777 nm
same,Emission peak,[1]; 100% Fetal bovine serum,795 nm
same,Luminance (molar extinction coefficient × fluorescence quantum yield),[1]; 100% Fetal bovine serum,20700
same,Molar extinction coefficient,[1]; 100% Fetal bovine serum,184000 M⁻¹ cm⁻¹
same,Stokes shift,[1]; 100% Fetal bovine serum,18 nm
same,Fluorescence quantum yield,[1]; 100% Fetal bovine serum,11.2%
same,Change of fluorescence property in 100% fetal bovine serum versus PBS,[1]; 100% fetal bovine serum vs PBS,did not obviously change
same,Absorption peak,[1]; PBS buffer (pH = 7.4),776 nm
same,Emission peak,[1]; PBS buffer (pH = 7.4),794 nm
same,Luminance (molar extinction coefficient × fluorescence quantum yield),[1]; PBS buffer (pH = 7.4),19300
same,Molar extinction coefficient,[1]; PBS buffer (pH = 7.4),174000 M⁻¹ cm⁻¹
same,Stokes shift,[1]; PBS buffer (pH = 7.4),18 nm
same,Fluorescence quantum yield,[1]; PBS buffer (pH = 7.4),11.1%
same,Fluorescence signal at tumor site,[2],strong fluorescence signal
same,Signal-to-noise ratio at ovarian tumor site,[2],about 4.0
same,TBR (tumor signal-to-noise ratio) relative to the other three probes,"[3]; 24 h after intravenous injection, 2 nmol per mouse",twice or more
same,Tissue background (non-specific) signal in normal tissue,[3]; in vivo imaging,ultra-low
same,"Tumor signal-to-noise ratio (TBR), compared with the other probes","[3]; intravenous, 2 nmol per mouse",obviously improved
same,Fluorescence signal at tumor site,U87 human glioma,strong fluorescence signal
same,Signal-to-noise ratio at tumor site,U87 human glioma; head skin cut,up to 6.3
same,Fluorescence signal at tumor site,[4],strong fluorescence signal
same,Signal-to-noise ratio of small lung metastasis lesion,[4],about 4
same,Fluorescence signal at tumor site,[5],strong fluorescence signal
same,Signal-to-noise ratio of small lung metastasis lesion,[5],about 4
COCCOCCOCCN1/C(=C/C=C2\CCCC(/C=C/C3=[N+](CCOCCOCCOC)c4ccc(S(=O)(=O)O)cc4C3(C)C)=C2Oc2ccc(CCC(=O)N[C@@H](CCCNC(=N)N)C(=O)NCCOCCOCCOCCOCCC(=O)NCCCC[C@H](NC(=O)NC(CCC(=O)O)C(=O)O)C(=O)O)cc2)C(C)(C)c2cc(S(=O)(=O)[O-])ccc21 (stereo partly drawn) [example 5],Binding to PSMA in prostate cancer,PSMA,can bind to highly expressed PSMA in prostate cancer
same,Prostate cancer-specific fluorescence imaging,PSMA,achieving prostate cancer-specific fluorescence imaging
COCCOCCOCCN1/C(=C/C=C2\CCCC(/C=C/c3[se]c4cc(S(=O)(=O)O)ccc4[n+]3CCOCCOCCOC)=C2c2ccc(CCC(=O)N[C@@H](CCNC(=N)N)C(=O)NCCOCCOCCOCCOCCC(=O)NCCCCC3NC(=O)[C@@H](Cc4ccc(O)cc4)NC(=O)[C@H](CC(=O)O)NC(=O)CNC(=O)[C@H](CCCNC(=N)N)NC3=O)cc2)[Se]c2cc(S(=O)(=O)O)ccc21 (stereo partly drawn) [example 3],Fluorescence property compared to example 1,[1],comparable to that in example 1
same,Usability for targeted fluorescence imaging of tumors,tumors,can be used for targeted fluorescence imaging of tumors
COCCOCCOCCN1/C(=C/C=C2\CCCC(/C=C/C3=[N+](CCOCCOCCOC)c4ccc(S(=O)(=O)O)cc4C3(C)C)=C2Oc2ccc(CCC(=O)O)cc2)C(C)(C)c2cc(S(=O)(=O)[O-])ccc21 [PEG-Cy7-COOH],Fluorescent brightness compared with PEG-Cy7-Cl,[1]; PBS,doubled
same,Increase of fluorescence quantum yield compared with PEG-Cy7-Cl,[1]; PBS,3.7%
same,Absorption peak,[1]; PBS buffer (pH = 7.4),772 nm
same,Emission peak,[1]; PBS buffer (pH = 7.4),794 nm
same,Luminance (molar extinction coefficient × fluorescence quantum yield),[1]; PBS buffer (pH = 7.4),19800
same,Molar extinction coefficient,[1]; PBS buffer (pH = 7.4),228000 M⁻¹ cm⁻¹
same,Stokes shift,[1]; PBS buffer (pH = 7.4),22 nm
same,Fluorescence quantum yield,[1]; PBS buffer (pH = 7.4),8.7%
